In PMC9695592, “Phenotypic Evaluation of Nucleoside Analogues against Trypanosoma cruzi Infection: In Vitro and In Vivo Approaches” (Molecules, 2022):
Like-named read-outs stand apart in the source and are kept apart here.

Columns and labels:
L929 cells = assay: Toxicity on L929 cells (AlamarBlue); type: cell-based; conditions: Mus musculus, L929, 168 h; seven days of compound incubation; 95% confidence interval in brackets
From the text: (§1) L929 cell lines were used to evaluate the effect of the nucleoside derivatives on the cellular viability of mammalian host cells and to assess their activity against intracellular forms of T. cruzi (Tulahuen strain expressing E. coli β-galactosidase gene, DTU VI) as reported. 2D and 3D culture systems of rat cardiomyoblast cell lines (H9C2(2-1)) were used to evaluate cardiotoxicity and to test the derivatives’ activity on intracellular forms (Y strain, DTU II). In all assays, the cell cultures were maintained at 37 °C under an atmosphere of 5% CO2.
(§2) L929 cells seeded in sterile 96-well microtiter plates were exposed or not to increasing concentrations (up to 200 µM) of the compounds. After seven days of incubation, the cell growth of treated cultures was compared to untreated control cells (100% cell growth). Cellular viability was assessed through AlamarBlue® (resazurin sodium salt) colorimetric assay, and the results were expressed as % reduction in cell growth/viability compared to untreated control, and an IC50 value determined. For the assays using H9C2 cultures, 25 × 10^3 cells/well were seeded in a 96-well microtiter plates (flat and U bottoms, precoated with agarose 1% for preparing 2- and 3D matrices, respectively) and maintained at 37 °C [48, 54].

[1] = tested on: intracellular forms of T. cruzi (Y strain) in 3D H9C2; assay: Activity against T. cruzi (Y strain) infection of H9C2 spheroids (3D); type: cell-based, Trypanosoma cruzi; conditions: 10 µM, seven days of incubation, 95% confidence interval in brackets
From the text: as §1
(§3) Bloodstream trypomastigotes of the Y strain (DTU II) were obtained by cardiac puncture of infected Swiss Webster mice on the parasitemia peak to perform drug sensitivity assays. Trypomastigote forms of the Tulahuen-β gal strain were collected from the supernatant of previously infected L929 cell cultures (host/parasite cell ratio 10:1). The intracellular forms T. cruzi were studied by the infection of L929 and H9C2 (2D and 3D) cell cultures infected for 48 and 24 h with trypomastigotes of Tulahuen-β gal and Y strains, respectively. The Leishmania mexicana-Cas9 T7 strain (LmexCas9) was derived from L. mexicana WT promastigotes by expression of the Streptococcus pyogenes Cas9 nuclease gene ‘Cas9′ and maintained on 32 μg/mL hygromycin [51]. This strain and the derived strains Cas9^ΔNT1 and Cas9^ΔNT1+TcrNT2 were cultured in HOMEM medium supplemented with 10% of FBS and 1% Penicillin-Streptomycin antibiotic in unvented flasks at 25 °C [52]. The Cas9^ΔNT1 strain is identical to Cas9 except that the LmexNT1.1/NT1.2 locus encoding the L. mexicana adenosine/ pyrimidine transporters was excised using Cas9 [17, 40]. Cas9^ΔNT1+TcrNT2 is the further modification of that strain by the expression of the T. cruzi nucleoside transporter 2 (TcrNT2) gene in it, using the vector pNUS-HcN [53]. Appropriate antibiotics were added for the selection and maintenance of transfectants.
3D cultures of H9C2 cells were obtained as described, and 24 h after plating, the spheroids were infected (or not, control) with bloodstream trypomastigotes of T. cruzi (strain Y), using 20 parasites per host cell. After 24 h, infected spheroids were incubated with 10 µM of the tested compounds for seven days, and then the spheroids were transferred one by one to an Eppendorf tube, with the aid of a pestle they were mechanically macerated following an established protocol with minor adaptations. The parasite load was quantified by light microscopy and qPCR [54], and the results were expressed as % of parasite death. The data results from two independent experiments performed in at least duplicate.

H9C2 2D cultures = assay: Cardiotoxicity on H9C2 monolayers (2D), PrestoBlue; type: cell-based; conditions: Rattus norvegicus
From the text: as §1
as §2, with “After seven days of incubation, the cell growth of treated cultures was compared to untreated control cells (100% cell growth).” left out
[…] Cell viability was measured using the PrestoBlue® (PB) colorimetric assay, the results evaluated as % reduction in cell growth/viability compared to untreated control, and an IC50 value determined. The data results from at least two independent experiments done in at least duplicates.

[2] = tested on: bloodstream trypomastigotes of T. cruzi (Y strain); assay: Activity against bloodstream trypomastigotes, light microscopy counting; type: cell-based; conditions: Trypanosoma cruzi, 24 h of compound incubation, 95% confidence interval in brackets; for EC50: read-out: Activity upon Bloodstream Forms EC50; for EC90: read-out: Activity upon Bloodstream Forms EC90
Description: as §3
To analyze the compound activity against bloodstream trypomastigotes of T. cruzi (Y strain), […] of parasite were added in 96-well microtiter plates and incubated for 2 or for 24 h at 37 °C in RPMI culture medium in the presence or absence of each compound (up to 30 µM). The death rates were quantified by light microscopy using a Neubauer chamber to determine the EC50 [49, 58]. The data results from two independent experiments performed in duplicate were obtained.

H9C2 3D cultures = assay: Cardiotoxicity on H9C2 organoids (3D), PrestoBlue; type: cell-based, rat; conditions: 95% confidence interval in brackets
From the text: as §1, §2
The cardiac cultures were exposed or not to increasing concentrations of the nucleoside derivatives (up to 300 µM), and after seven days of incubation, their physiology and morphology was evaluated by light microscopy. Cell viability was measured using the PrestoBlue® (PB) colorimetric assay, the results evaluated as % reduction in cell growth/viability compared to untreated control, and an IC50 value determined. The data results from at least two independent experiments done in at least duplicates.

[3] = H9c2, 24 h, read-out: H9C2 IC50 µM
[4] = H9c2, 168 h, read-out: Cardiotoxic profile IC50 (µM) 2D
[5] = Rattus norvegicus, H9c2, 168 h, read-out: Cardiotoxic profile IC50 (µM) 3D, 3D H9C2, seven days of compound incubation
[6] = read-out: Cardiotoxic profile IC50 (µM) 3D, 3D H9C2, seven days of compound incubation

| SMILES | IC50 (L929 cells) [µM] | % of Death Rate by Light Microscopy Quantification 3D [1] | % of Death Rate by qPCR 3D [1] | IC50 (H9C2 2D cultures; [3]) [µM] | IC50 (H9C2 2D cultures; [4]) [µM] | EC50 [2] [µM] | EC90 [2] [µM] | IC50 (H9C2 3D cultures; [5]) [µM] | IC50 (H9C2 3D cultures; [6]) [µM] |
| --- | --- | --- | --- | --- | --- | --- | --- | --- | --- |
| Nc1ncnc2c1c(-c1ccc(Cl)c(F)c1)cn2[C@@H]1O[C@H](CO)[C@@H](O)[C@H]1O [FH10714, 7-(3-fluoro,4-chlorophenyl)tubercidin] | 55.8 | 93.5 (93.46 to 93.54) % | 67 (38 to 96) % | > 300 | 41.8 | 13.4 | > 30 | 180 | 181 |
| Nc1ncnc2c1c(-c1ccc(F)c(F)c1)cn2[C@@H]1O[C@H](CO)[C@@H](O)[C@H]1O [FH11706, 7-(3,4-Difluorophenyl)tubercidin] | 118 | 91.6 (86.2 to 97) % | 85 (79 to 91) % | > 300 | 47.7 | 17.6 | > 30 | > 200 |  |
| O=C(Cn1ccnc1[N+](=O)[O-])NCc1ccccc1 [Bz, Benznidazole, reference compound] | > 200 | 98.4 (98.1 to 98.7) % | 100% | > 300 | > 200 | 6.9 | 19.6 | > 200 |  |
| Nc1ncnc2c1c(-c1ccc(Cl)c(Cl)c1)cn2[C@@H]1O[C@H](CO)C[C@H]1O [FH8513, 7-(3,4-dichlorophenyl)-3′-deoxytubercidin] | 22.3 | 83.8 (67.5 to 100) % | 94 (90 to 98) % | 268 | 18.6 | 5.9 | 16.7 | 199 | 200 |
